In patent publication US20020133846A1, “Method for protecting plants” (priority 1996, published 2002):
Like-named read-outs stand apart in the source and are kept apart here.

Experiments:
[1] = system: Phytophthora infestans; assay type: in vivo
[2] = system: Pseudoperonospora cubensis; assay: Action against Pseudoperonospora cubensis in cucumbers; assay type: in vivo
[3] = system: Peronospora parasitica NoCo2; assay: Action against Peronospora parasitica NoCo2 in Arabidopsis thaliana (Col-0), rRNA fungal probe; assay type: in vivo; settings: Table 29, Col-0, metalaxyl alone 0.1 mg/l
[4] = system: Peronospora parasitica Emwa; assay: Action against Peronospora parasitica Emwa in Arabidopsis thaliana (Ws), rRNA fungal probe; assay type: in vivo
[5] = system: Peronospora parasitica NoCo2; assay: whole plant or invertebrate; assay type: in vivo; settings: Hyaloperonospora parasitica, in Arabidopsis thaliana, read-out: Fungal Growth Inhibition % O (observed), Table 33, wt Col-0, metalaxyl 12.5 mg/l
[6] = system: Peronospora parasitica isolate Emwa; assay: Action against Peronospora parasitica in Arabidopsis overexpressing NIM1 (lines 6E, 7C) and wild-type Ws; assay type: in vivo; settings: for inhibition at 500 µg/mL: fosetyl 0.5 g/l; for inhibition at 5000 µg/mL: fosetyl 5.0 g/l
Excerpt: The plant lines used in this example (6E and 7C) were generated from transformation of wild-type Arabidopsis thaliana plants (ecotype Ws) with the BamHI-HindIII NIM1 genomic fragment (SEQ ID NO:1—bases 1249-5655), as described above in Example 21. The fungicides metalaxyl, fosetyl, and copper hydroxide, formulated as 25%, 80%, and 70% active ingredient (ai), respectively, with a wettable powder carrier, were applied as fine mist to leaves of three week-old transgenic Ws plants constitutively expressing the NIM1 gene. The wettable powder alone was applied as a control. Three days later, plants were inoculated with a Peronospora parasitica isolate Emwa conidial suspension (1-2×10^5 spores/ml), as described in Delaney et al. (1995). Following inoculation, plants were covered to maintain high humidity and were placed in a Percival growth chamber at 17° C. with a 14-hr day/10-hr night cycle (Uknes et al., 1993). Tissue was harvested 8 days after inoculation.
Fungal infection progression was followed for 12 days by viewing under a dissecting microscope to score development of conidiophores (Delaney, et al. (1994); Dietrich, et al. (1994)). Lactophenoltrypan blue staining of individual leaves was carried out to observe fungal growth within leaf tissue. Fungal growth was quantified using a rRNA fungal probe obtained by PCR according to White et al. (1990; PCR Protocols: A guide to Methods and Application, 315-322) using primers NS1 and NS2 and P. parasitica EmWa DNA as templates. RNA was purified from frozen tissue by phenol/chloroform extraction following lithium chloride precipitation (Lagrimini et al, 1987: PNAS, 84: 7542-7546). Samples (7.5 μg) were separated by electrophoresis through formaldehyde agarose gels and blotted to nylon membranes (Hybond-N+, Amersham) as described by Ausbel et al. (1987). Hybridizations and washing were according to Church and Gilbert (1984, PNAS, 81: 1991-1995). Relative amounts of the transcript were determined using a Phosphor Imager (Molecular Dynamics, Sunnyvale, Calif.) following manufacturers instructions. Sample loading was normalized by probing stripped filter blots with the constitutively expressed b-tubulin Arabidopsis cDNA.

[7] = system: Pyricularia oryzae; assay type: in vivo
[8] = system: Pyricularia oryzae; assay type: in vivo; remark: listed apart in the source
[9] = system: Colletotrichum lagenarium; assay: Action against Colletotrichum lagenarium on Cucumis sativus L., foliar application; assay type: in vivo
[10] = system: Colletotrichum lagenarium; assay: Action against Colletotrichum lagenarium on Cucumis sativus L., soil application; assay type: in vivo
[11] = system: Cercospora nicotianae; assay: Action against Cercospora nicotianae on tobacco plants; assay type: in vivo
[12] = system: Puccinia recondita; assay: Action against Puccinia recondita in wheat
Procedure: 7-day-old wheat plants were sprayed to drip point with a spray mixture prepared from a formulated active ingredient, or combination of active ingredients. After 4 days, the treated plants were infected with a conidia suspension of the fungus, and the treated plants were subsequently incubated for 2 days at a relative atmospheric humidity of 90-100% and 20 C. 10 days post-infection, the fungus infestation was assessed.

[13] = system: Erysiphe graminis; assay: Action against Erysiphe graminis on barley (residual-protective / systemic)
Procedure: Residual-protective action: Barley plants about 8 cm in height were sprayed to drip point with an aqueous spray mixture (max. 0.02 % active ingredient) and were dusted 3 to 4 days later with conidia of the fungus. The infected plants were stood in a greenhouse at 22°. Fungus infestation was generally evaluated 10 days after infection.
Systemic action: Barley plants about 8 cm in height were watered with an aqueous spray mixture (max. 0.002 % active ingredient, based on the volume of the soil). […] The plants were dusted with conidia of the fungus 3 to 4 days later. The infected plants were stood in a greenhouse at 22°. Fungus infestation was generally evaluated 10 days after infection.

[14] = system: Peronospora tabacina; assay: Action against Peronospora tabacina on tobacco plants
Procedure: Tobacco plants (6 weeks old) were sprayed with a formulated solution of the test compound. Four days after treatment, the plants were inoculated with a sporangia suspension of the fungus, kept at high humidity for 4 to 5 days and then incubated further under a normal day/night sequence. Evaluation of the symptoms in the tests was based on the leaf surface infested with fungus. The infestation of the untreated plants corresponded to 0 % action.

[15] = system: Pyricularia oryzae; assay type: in vivo; remark: listed apart in the source
[16] = Hyaloperonospora parasitica, in Arabidopsis thaliana, Table 37, wt Ws, read-out: Fungal Growth Inhibition % O (observed)
[17] = Hyaloperonospora parasitica, in Arabidopsis thaliana, wild-type Ws (Table 38), read-out: Fungal Growth Inhibition % O (observed)

COCC(=O)N(c1c(C)cccc1C)C(C)C(=O)OC (racemic) [metalaxyl]
% action O (observed) ([1]; Table 25, comp. II alone 0.1 mg a.i. per liter): 13%
% action O (observed) ([1]; Table 25, comp. II alone 1 mg a.i. per liter): 23%
% action O (observed) ([1]; Table 25, comp. II alone 10 mg a.i. per liter): 35%
% action O (observed) ([1]; Table 25, comp. II alone 50 mg a.i. per liter): 68%
% action O (observed) ([1]; Table 26, comp. II alone 1 mg a.i. per liter): 13%
% action O (observed) ([1]; Table 26, comp. II alone 10 mg a.i. per liter): 33%
% action O (observed) ([1]; Table 26, comp. II alone 50 mg a.i. per liter): 63%
% action O (observed) ([1]; Table 26, comp. II alone 100 mg a.i. per liter): 83%
% action O (observed) ([2]; Table 27, comp. II alone 0.5 mg a.i. per liter): 31%
% action O (observed) ([2]; Table 27, comp. II alone 5 mg a.i. per liter): 66%
% action O (observed) ([2]; Table 27, comp. II alone 50 mg a.i. per liter): 91%
inhibition at 0.1 µg/mL ([3]; Hyaloperonospora parasitica, in Arabidopsis thaliana, read-out: Fungal Growth Inhibition % O (observed)): 0%
Fungal Growth Inhibition % O (observed) [3]: no fungal growth inhibition
inhibition at 0.1 µg/mL ([4]; Hyaloperonospora parasitica, in Arabidopsis thaliana, Table 30, Ws, metalaxyl alone 0.1 mg/l, read-out: Fungal Growth Inhibition % O (observed)): 50%
inhibition at 0.5 µg/mL ([4]; Hyaloperonospora parasitica, in Arabidopsis thaliana, Table 30, Ws, metalaxyl alone 0.5 mg/l, read-out: Fungal Growth Inhibition % O (observed)): 50%
inhibition at 2.5 µg/mL ([4]; Hyaloperonospora parasitica, in Arabidopsis thaliana, Table 30, Ws, metalaxyl alone 2.5 mg/l, read-out: Fungal Growth Inhibition % O (observed)): 75%
inhibition at 12.5 µg/mL [5]: 52.7%
inhibition at 1.2 µg/mL ([6]; Hyaloperonospora parasitica, in Arabidopsis thaliana, Table 36, wt Ws, metalaxyl 0.0012 g/l, read-out: Fungal Growth Inhibition % O (observed)): 27%
inhibition at 12.5 µg/mL ([6]; Hyaloperonospora parasitica, in Arabidopsis thaliana, Table 36, wt Ws, metalaxyl 0.0125 g/l, read-out: Fungal Growth Inhibition % O (observed)): 59%

O=C1CCc2cccc3c2N1CC3 [Compound IIJ, 1,2,5,6-tetrahydro-4H-pyrrolo[3,2,1-ij]quinolin-4-one]
% action O (observed) ([7]; Table 14, comp. II alone 0.75 kg a.i. per ha): 46%
% action O (observed) ([7]; Table 14, comp. II alone 1.5 kg a.i. per ha): 82%

[Cu+2].[OH-].[OH-] [Cu(OH)2, copper hydroxide]
Fungal Growth Inhibition % O (observed) ([4]; Table 32, Ws, Cu(OH)2 alone 0.01 g/l): 0%
Fungal Growth Inhibition % O (observed) ([6]; Cu(OH)2 0.02 g/l, wild-type Ws (Table 39)): 0%
Fungal Growth Inhibition % O (observed) ([6]; Cu(OH)2 0.02 g/l, wild-type Ws (Table 40)): 0%
Fungal Growth Inhibition % O (observed) ([6]; Cu(OH)2 0.2 g/l, wild-type Ws (Table 39)): 0%
Fungal Growth Inhibition % O (observed) ([6]; Cu(OH)2 0.2 g/l, wild-type Ws (Table 40)): 0%
Fungal Growth Inhibition % O (observed) ([6]; Cu(OH)2 2.0 g/l, wild-type Ws (Table 39)): 0%
Fungal Growth Inhibition % O (observed) ([6]; Cu(OH)2 2.0 g/l, wild-type Ws (Table 40)): 0%

CCC1(C(=O)NC(C)c2ccc(Cl)cc2)C(C)C1(Cl)Cl [KTU 3616, (1R,3S/1S,3R)-2,2-dichloro-N-[(R)-1-(4-chlorophenyl)ethyl]-1-ethyl-3-methylcyclopropanecarboxamide]
% action O (observed) ([8]; Table 13, comp. II alone 0.02 ppm): 0%
% action O (observed) ([8]; Table 13, comp. II alone 0.06 ppm): 28%
% action O (observed) ([8]; Table 13, comp. II alone 0.2 ppm): 47%
% action O (observed) ([8]; Table 13, comp. II alone 0.6 ppm): 79%
% action O (observed) ([8]; Table 13, comp. II alone 2 ppm): 83%
% action O (observed) ([8]; Table 13, comp. II alone 6 ppm): 91%

O=C(O)c1cccc2nnsc12 [benzothiadiazole-7-carboxylic acid]
% action O (observed) ([9]; Table 4, comp. I alone 0.2 ppm): 5%
% action O (observed) ([9]; Table 4, comp. I alone 2 ppm): 22%
% action O (observed) ([9]; Table 6, comp. I alone 0.2 ppm): 3%
% action O (observed) ([9]; Table 6, comp. I alone 0.6 ppm): 51%
% action O (observed) ([9]; Table 7, comp. I alone 0.06 ppm): 16%
% action O (observed) ([9]; Table 7, comp. I alone 0.2 ppm): 22%
% action O (observed) ([9]; Table 7, comp. I alone 6 ppm): 60%
% action O (observed) ([10]; Table 5, comp. I alone 0.006 ppm): 0%
% action O (observed) ([10]; Table 5, comp. I alone 0.02 ppm): 40%
% action O (observed) ([10]; Table 5, comp. I alone 0.06 ppm): 49%
% action O (observed) ([10]; Table 5, comp. I alone 0.2 ppm): 91%
% action O (observed) ([11]; Table 11, comp. I alone 0.2 kg a.i. per ha): 0%
% action O (observed) ([11]; Table 11, comp. I alone 0.6 kg a.i. per ha): 3%
% action O (observed) ([11]; Table 11, comp. I alone 2 kg a.i. per ha): 69%
% action O (observed) ([11]; Table 11, comp. I alone 6 kg a.i. per ha): 79%
% action O (observed) ([11]; Table 12, comp. I alone 2 kg a.i. per ha): 69%
% action O (observed) ([11]; Table 12, comp. I alone 6 kg a.i. per ha): 79%
% action O (observed) ([11]; Table 12, comp. I alone 20 kg a.i. per ha): 100%
% action O (observed) ([1]; Table 26, comp. I alone 0.1 mg a.i. per liter): 0%
% action O (observed) ([1]; Table 26, comp. I alone 0.5 mg a.i. per liter): 9%
% action O (observed) ([1]; Table 26, comp. I alone 1 mg a.i. per liter): 22%
% action O (observed) ([1]; Table 26, comp. I alone 5 mg a.i. per liter): 45%
% action O (observed) ([2]; Table 27, comp. I alone 0.05 mg a.i. per liter): 0%
% action O (observed) ([2]; Table 27, comp. I alone 0.5 mg a.i. per liter): 6%
% action O (observed) ([2]; Table 27, comp. I alone 5 mg a.i. per liter): 66%
% action O (observed) ([12]; Table 20, comp. I alone 6 kg a.i. per ha): 20%
% action O (observed) ([12]; Table 20, comp. I alone 20 kg a.i. per ha): 40%
% action O (observed) ([13]; Table 1, comp. I alone 0.6 ppm): 0%
% action O (observed) ([13]; Table 1, comp. I alone 2 ppm): 40%
% action O (observed) ([13]; Table 1, comp. I alone 6 ppm): 89%
% action O (observed) ([13]; Table 2, comp. I alone 0.6 ppm): 14%
% action O (observed) ([13]; Table 2, comp. I alone 2 ppm): 27%

COc1ccc(C(=CC(=O)N2CCOCC2)c2ccc(Cl)cc2)cc1OC [dimethomorph, 4-[3-(4-chlorophenyl)-3-(3,4-dimethoxyphenyl)acryloyl]morpholine]
% action O (observed) ([14]; Table 28, comp. II alone 0.3 ppm): 52%
% action O (observed) ([14]; Table 28, comp. II alone 1 ppm): 52%

CC(Cc1ccc(C(C)(C)C)cc1)CN1CCCCC1 (stereo not shown) [fenpropidine, 1-[3-(4-tert-butylphenyl)-2-methylpropyl]-piperidine]
% action O (observed) ([12]; Table 20, comp. II alone 20 kg a.i. per ha): 40%
% action O (observed) ([12]; Table 20, comp. II alone 60 kg a.i. per ha): 60%

CCO[PH](=O)O [fosetyl, ethyl hydrogen phosphonate]
inhibition at 40 µg/mL ([4]; Hyaloperonospora parasitica, in Arabidopsis thaliana, Table 31, Ws, fosetyl alone 0.04 g/l, read-out: Fungal Growth Inhibition % O (observed)): 0%
inhibition at 200 µg/mL ([4]; Hyaloperonospora parasitica, in Arabidopsis thaliana, Table 31, Ws, fosetyl alone 0.2 g/l, read-out: Fungal Growth Inhibition % O (observed)): 10%
inhibition at 1000 µg/mL ([4]; Hyaloperonospora parasitica, in Arabidopsis thaliana, Table 31, Ws, fosetyl alone 1.0 g/l, read-out: Fungal Growth Inhibition % O (observed)): 40%
inhibition at 50 µg/mL ([6]; Hyaloperonospora parasitica, in Arabidopsis thaliana, Table 37, wt Ws, fosetyl 0.05 g/l, read-out: Fungal Growth Inhibition % O (observed)): 0%
inhibition at 500 µg/mL [6, 16]: 2%
inhibition at 5000 µg/mL [6, 16]: 7%
inhibition at 500 µg/mL [6, 17]: 2%
inhibition at 5000 µg/mL [6, 17]: 7%

Cc1cccc2sc3nncn3c12 [tricyclazole, 5-methyl-1,2,4-triazolo[3,4-b][1,3]benzothiazole]
% action O (observed) ([15]; Table 15, comp. II alone 0.1 ppm): 32%
% action O (observed) ([15]; Table 15, comp. II alone 0.25 ppm): 48%
% action O (observed) ([15]; Table 15, comp. II alone 0.5 ppm): 71%
% action O (observed) ([15]; Table 15, comp. II alone 1 ppm): 74%
